Results on 10 molecules are retold here after patent US7495100B2, “Synthesis of indenoisoquinolines” (Purdue Research Foundation, priority 2004, dated 2009).

Read-outs that look alike come from different tables or passages of the source. A value given as a limit tells only on which side of the number the result lay.

The subject of one data set is SF-268. Kind of data set: NCI screen antiproliferative activity, CNS SF-268. Type of data set: cell-based, human. The following applies: concentration corresponding to 50% growth inhibition, read-out: cytotoxicity GI50 CNS SF-268. The procedure:
(§1) The indenoisoquinolines described herein were examined for antiproliferative activity against the human cancer cell lines in the National Cancer Institute screen, in which the activity of each compound was evaluated with approximately 55 different cancer cell lines of diverse tumor origins. The MGM is based on a calculation of the average GI50 for all of the cell lines tested (approximately 55) in which GI50 values below and above the test range (10^−8 to 10^−4 molar) are taken as the minimum (10^−8 molar) and maximum (10^−4 molar) drug concentrations used in the screening test. The relative potencies of the compounds described herein in the production of topoisomerase I-mediated DNA cleavage are also listed in Table 1.

The next data set has as its system OVCAR-3. Kind of data set: NCI screen antiproliferative activity, ovarian OVCAR-3. Type of data set: cell-based, human. Particulars: concentration corresponding to 50% growth inhibition, read-out: cytotoxicity GI50 ovarian OVCAR-3. The procedure: as §1
For data set [1], the system named is human cancer cell lines in the National Cancer Institute screen. Kind of data set: NCI screen mean graph midpoint over approximately 55 cancer cell lines. Type of data set: cell-based. The following applies: for MGM (mean graph midpoint for growth inhibition): average GI50 of all human cancer cell lines tested (approximately 55), test range 10^-8 to 10^-4 molar. On the procedure: as §1

The next data set relates to UACC-62. Nature of the data set: NCI screen antiproliferative activity, melanoma UACC-62. The class given is cell-based, human. The following applies: concentration corresponding to 50% growth inhibition, read-out: cytotoxicity GI50 melanoma UACC-62. The procedure: as §1
The test system of a further data set is MDA-MB-435. Nature of the data set: NCI screen antiproliferative activity, breast MDA-MB-435. The class given is cell-based, human. The following applies: concentration corresponding to 50% growth inhibition, read-out: cytotoxicity GI50 breast MDA-MB-435. On the procedure: as §1
For the next data set, the system named is HCT-116. Nature of the data set: NCI screen antiproliferative activity, colon HCT-116. Type of data set: cell-based, human. Particulars: concentration corresponding to 50% growth inhibition, read-out: cytotoxicity GI50 colon HCT-116. On the procedure: as §1
In a further data set the test system is HOP-62. Nature of the data set: NCI screen antiproliferative activity, lung HOP-62. Type of data set: cell-based, human. The following applies: concentration corresponding to 50% growth inhibition, read-out: cytotoxicity GI50 lung HOP-62. The procedure: as §1
The next data set has as its system DU-145. Kind of data set: NCI screen antiproliferative activity, prostate DU-145. The class given is cell-based, human. The following applies: concentration corresponding to 50% growth inhibition, read-out: cytotoxicity GI50 prostate DU-145. The procedure:
as §1

A further data set has as its target T1, topoisomerase I (top1) (Homo sapiens, UniProt P11387).
T1 sequence (P11387 1-765): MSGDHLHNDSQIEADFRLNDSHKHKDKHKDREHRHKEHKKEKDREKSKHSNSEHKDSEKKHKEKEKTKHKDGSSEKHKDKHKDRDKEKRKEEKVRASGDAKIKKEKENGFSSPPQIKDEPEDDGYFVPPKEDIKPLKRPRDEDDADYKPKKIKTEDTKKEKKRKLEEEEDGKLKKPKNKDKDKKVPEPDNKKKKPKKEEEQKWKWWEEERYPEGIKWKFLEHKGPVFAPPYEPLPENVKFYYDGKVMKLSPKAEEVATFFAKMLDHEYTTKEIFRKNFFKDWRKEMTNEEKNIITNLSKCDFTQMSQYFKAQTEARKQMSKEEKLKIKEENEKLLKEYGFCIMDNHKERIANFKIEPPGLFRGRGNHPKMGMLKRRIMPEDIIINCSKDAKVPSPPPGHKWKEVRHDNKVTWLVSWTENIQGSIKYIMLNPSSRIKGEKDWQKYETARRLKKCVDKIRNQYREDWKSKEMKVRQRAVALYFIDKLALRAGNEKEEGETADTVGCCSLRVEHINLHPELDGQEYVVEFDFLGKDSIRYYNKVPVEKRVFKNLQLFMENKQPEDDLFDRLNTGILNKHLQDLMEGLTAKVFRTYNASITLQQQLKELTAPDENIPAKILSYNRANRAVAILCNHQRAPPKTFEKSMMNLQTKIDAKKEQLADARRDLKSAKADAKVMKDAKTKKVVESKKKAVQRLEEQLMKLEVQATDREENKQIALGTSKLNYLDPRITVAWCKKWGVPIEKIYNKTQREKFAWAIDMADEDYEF
Nature of the data set: topoisomerase I-mediated DNA cleavage. Type of data set: biochemical. Set-up: key: +: weak activity; ++: similar activity as the parent compound 25; +++: greater activity than the parent compound 25; ++++: similar activity as 1 μM camptothecin. The following applies: tested at concentrations ranging up to 10 μM; semi-quantitative. The procedure: as §1

Another data set concerns SN12C. Nature of the data set: NCI screen antiproliferative activity, renal SN12C. Type of data set: cell-based, human. The following applies: concentration corresponding to 50% growth inhibition, read-out: cytotoxicity GI50 renal SN12C. The procedure: as §1
Where [2] appears, read: average GI50 of all cell lines tested.

`O=C1c2cc3c(cc2C2C1c1ccc([N+](=O)[O-])cc1C(=O)N2CCCBr)OCO3` (racemic) [Compound 12]: the GI50 with SF-268, in the data set with OVCAR-3, with UACC-62, with MDA-MB-435, with HCT-116 and in the data set on HOP-62 was under 0.01 µM in each case. The GI50 in the data set on DU-145 and with SN12C was under 0.01 µM in each case. Besides, the “activity (MGM)” value in [1] (setting [2]) stood at 16 nm. Also, in data set [1], the “MGM (mean graph midpoint for growth inhibition)” value came out at 0.016 ± 0.003 µM. Also, the “Top 1 Cleavage” value at topoisomerase I (top1) is listed as “+”.
Take `O=C1c2cc3c(cc2C2C1c1ccc([N+](=O)[O-])cc1C(=O)N2CCCCl)OCO3` (racemic) [Compound 13]: the GI50 in the data set on SF-268, in the data set with OVCAR-3, with UACC-62, in the data set with MDA-MB-435, with HCT-116 and in the data set with HOP-62 was under 0.01 µM each time. Also, the GI50 in the data set on DU-145 and in the data set with SN12C was under 0.01 µM each time. For the same molecule, the “activity (MGM)” value in data set [1] (setting [2]) was 18 nm. Also, in data set [1], the “MGM (mean graph midpoint for growth inhibition)” value worked out at 0.018 ± 0.001 µM. The “Top 1 Cleavage” value on topoisomerase I (top1) is “+”.
Turning to `CN1C(=O)c2cc([N+](=O)[O-])ccc2C2C(=O)c3cc4c(cc3C21)OCO4` (racemic) [Compound 14], the GI50 – broadly, the concentration at which growth is held to half of that of the control – in the data set with SF-268 is 0.024 µM; in the data set with OVCAR-3, 0.03 µM; in the data set on UACC-62 it was 0.026 µM; in the data set with MDA-MB-435 it was 0.107 µM; in the data set with HCT-116, 0.014 µM; in the data set with HOP-62, 0.158 µM. The results for the GI50 with DU-145 and in the data set on SN12C were 0.05 µM and 0.033 µM, respectively. For the same molecule, the “MGM (mean graph midpoint for growth inhibition)” value in data set [1] was 0.105 ± 0.007 µM. In addition, at topoisomerase I (top1), the “Top 1 Cleavage” value was “+++”.
As to `O=C1c2cc3c(cc2-c2c1c1ccc([N+](=O)[O-])cc1c(=O)n2CCCCl)OCO3` [Compound 15], the GI50 was found to be 0.148 µM with SF-268; 9.12 µM with OVCAR-3; 0.229 µM with UACC-62; 1.82 µM with MDA-MB-435; 2.4 µM in the data set with HCT-116; 0.41 µM in the data set on HOP-62. For the same molecule, the GI50 with DU-145 was 0.098 µM; in the data set with SN12C, 0.132 µM. In addition, in data set [1], the “MGM (mean graph midpoint for growth inhibition)” value amounted to 0.832 µM. The “Top 1 Cleavage” value at topoisomerase I (top1) is reported as “+++”.
In the case of `[N-]=[N+]=NCCCn1c2c(c3ccc([N+](=O)[O-])cc3c1=O)C(=O)c1cc3c(cc1-2)OCO3` [Compound 16], the GI50 in the data set with SF-268, with OVCAR-3, in the data set on UACC-62, in the data set on MDA-MB-435, with HCT-116 and in the data set with HOP-62 was under 0.01 µM throughout. The GI50 in the data set with DU-145 and in the data set on SN12C was under 0.01 µM in each case. Further, in data set [1] (setting [2]), the “cytotoxicity (MGM) as stated in text” value is 98 nM. The “MGM (mean graph midpoint for growth inhibition)” value in data set [1] came to 0.098 ± 0.06 µM. The “Top 1 Cleavage” value at topoisomerase I (top1) was “++++”.
As to `Cl.Nc1ccc2c3c(n(CCCCl)c(=O)c2c1)-c1cc2c(cc1C3=O)OCO2` [Compound 18], the GI50 in the data set on SF-268, in the data set with OVCAR-3, in the data set on UACC-62, in the data set on MDA-MB-435 and with SN12C was over 100 µM each time. Besides, in data set [1], the “MGM (mean graph midpoint for growth inhibition)” value is 25 µM. In addition, the “Top 1 Cleavage” value on topoisomerase I (top1) was 0.
For `O=C1c2ccccc2-c2c1c1ccc([N+](=O)[O-])cc1c(=O)n2CCCBr` [Compound 20], the GI50 in the data set on SF-268 was over 100 µM; with OVCAR-3, over 100 µM; in the data set with UACC-62, over 100 µM; with MDA-MB-435 it was over 100 µM; with HCT-116 it was 3.45 µM; with DU-145, over 100 µM. The GI50 in the data set on SN12C was over 100 µM. Also, in data set [1], the “MGM (mean graph midpoint for growth inhibition)” value stood at 40 µM. The “Top 1 Cleavage” value at topoisomerase I (top1) was determined as 0.
Regarding `O=C1c2ccccc2-c2c1c1ccc([N+](=O)[O-])cc1c(=O)n2CCCCl` [Compound 22], the GI50 in the data set with SF-268 (Homo sapiens, SF-268) amounted to 23.4 µM; with OVCAR-3 (Homo sapiens, OVCAR-3), 4.9 µM; in the data set with UACC-62 (Homo sapiens, UACC-62), 20.4 µM; in the data set with MDA-MB-435 (Homo sapiens, MDA-MB-435), 31.6 µM; with HCT-116 (Homo sapiens, HCT-116), 3.63 µM; in the data set on HOP-62 (Homo sapiens, HOP-62), 43.7 µM. The GI50 with DU-145 (Homo sapiens, DU-145) came out at 40.7 µM; in the data set on SN12C (Homo sapiens, SN12C), 26.9 µM. Moreover, the “MGM (mean graph midpoint for growth inhibition)” value in [1] worked out at 18.2 µM.
Regarding `[N-]=[N+]=NCCCn1c2c(c3ccc([N+](=O)[O-])cc3c1=O)C(=O)c1ccccc1-2` [Compound 23], the GI50 in the data set with SF-268 (Homo sapiens, SF-268) was 79.4 µM; in the data set with UACC-62 (Homo sapiens, UACC-62), 44.7 µM; with MDA-MB-435 (Homo sapiens, MDA-MB-435), over 100 µM; in the data set on HCT-116 (Homo sapiens, HCT-116), 8.13 µM; in the data set on HOP-62 (Homo sapiens, HOP-62), over 100 µM; in the data set with DU-145 (Homo sapiens, DU-145) it was over 100 µM. Besides, the GI50 with SN12C (Homo sapiens, SN12C) was determined as 72.4 µM. Besides, in data set [1], the “MGM (mean graph midpoint for growth inhibition)” value turned out to be 13.5 µM.
Consider `Cl.NCCCn1c2c(c3ccc([N+](=O)[O-])cc3c1=O)C(=O)c1ccccc1-2` [Compound 24], for which the GI50 in the data set with SF-268 amounted to 0.302 µM; in the data set with UACC-62, 0.372 µM; in the data set on HCT-116, 0.085 µM; with HOP-62, 0.275 µM; in the data set on DU-145, 0.148 µM; with SN12C it was 0.102 µM. Moreover, the “MGM (mean graph midpoint for growth inhibition)” value in data set [1] was 0.245 µM.
